# Data: US10993993B2, “Pharmaceutical composition for treating muscle atrophy or sarcopenia including glucagon-like peptide (GLP-1) or GLP-1 receptor agonist” (IMMUNOFORGE CO., LTD., priority 2015, dated 2021)
# “Also recorded” adds a separate entry of the source. Ends that are not written are not given here.
# Assays:
# [1] = test system: myostatin and MyoD; assay: Myostatin and MyoD expression in dexamethasone-treated mice given sitagliptin or GLP-1(32-36)amide (Example 3-3); type: in vivo, C57BL/6J male mice; conditions: dexamethasone 20 mg/kg i.p.; sitagliptin 300 mg/kg oral gavage, GLP-1(32-36)amide 5 μg/kg i.p.; FIG. 9
# Experimental: The present inventors treated C57BL/6J male mice (n=10/group) with dexamethasone (20 mg/kg/i.p.) to reduce muscles of the mice, and they examined effects of sitagliptin (300 mg/kg/oral gavage) and GLP-1(32-36)amide (5 μg/kg/i.p.) on the body weights and muscles of the mice. Therefore, the present inventors examined a change in the expression level of myostatin, which is a cause of muscle atrophy, and a change in the expression level of the muscle-producing factor MyoD by sitagliptin and GLP-1(32-36)amide.
# [2] = test system: muscle atrophy animal model (dexamethasone); assay: Body weight of dexamethasone-treated mice given sitagliptin or GLP-1(32-36)amide (Example 3-1); type: in vivo, C57BL/6J male mice; conditions: dexamethasone 20 mg/kg i.p.; sitagliptin 300 mg/kg oral gavage, GLP-1(32-36)amide 5 μg/kg i.p.; FIG. 6
# Experimental: (§1) The present inventors treated C57BL/6J male mice (n=10/group) with dexamethasone (20 mg/kg/i.p.) to reduce muscles of the mice, and they examined effects of sitagliptin (300 mg/kg/oral gavage) and GLP-1(32-36)amide (5 μg/kg/i.p.) on the body weights and muscles of the mice.
# [3] = test system: muscle atrophy animal model (dexamethasone); assay: Grip strength of dexamethasone-treated mice given sitagliptin or GLP-1(32-36)amide (Example 3-2); type: in vivo, C57BL/6J male mice; conditions: dexamethasone 20 mg/kg i.p.; sitagliptin 300 mg/kg oral gavage, GLP-1(32-36)amide 5 μg/kg i.p.; FIG. 8
# Experimental: as §1, with “mice. In detail, the grip strength when all of the paws of the mouse of Example 6 were pulled with the same force was measured by a grip strength machine.” for “mice.”
# [4] = test system: muscle atrophy animal model (dexamethasone); assay: Muscle mass of dexamethasone-treated mice given sitagliptin or GLP-1(32-36)amide (Example 3-1); type: in vivo, C57BL/6J male mice; conditions: dexamethasone 20 mg/kg i.p.; sitagliptin 300 mg/kg oral gavage, GLP-1(32-36)amide 5 μg/kg i.p.; FIG. 7
# Experimental: as §1
# [5] = test system: dexamethasone-induced muscle atrophy or sarcopenia mice; assay: Grip strength of dexamethasone-treated mice given long-acting GLP-1(7-36) (Example 2-2); type: in vivo, male C57BL6J mice; conditions: dexamethasone 20 mg/kg i.p., Trulicity 1 mg/kg s.c. two times per week, PB1023 3 mg/kg s.c. three times per week, after two weeks, FIGS. 11A and 11B
# Experimental: (§2) Specifically, 10-week-old male C57BL6J mice were divided into 10 mice per group (total n=40), and saline and dexamethasone (20 mg/kg) were each intraperitoneally administered to the control and experimental groups each day. The grip strength of the mice was measured on day 9.
# (§3) Subsequently, on day 11, the control mice were administered with saline three times per week by subcutaneous injection (Co-vehicle group), whereas the comparative mice were administered with either (i) saline three times per week by subcutaneous injection (Dex-vehicle group), (ii) Trulicity (SEQ ID NO: 5) two times per week by subcutaneous injection (1 mg/kg; Trulicity group), or (iii) PB1023 three times per week by subcutaneous injection (3 mg/kg; PB1023 group).
# (§4) Thereafter, the grip strength was measured and a four limb hanging test was performed on day 14, and tissue sampling was performed on day 22.
# [6] = test system: dexamethasone-induced muscle atrophy or sarcopenia mice; assay: Muscle mass of dexamethasone-treated mice given long-acting GLP-1(7-36) (Example 2-3); type: in vivo, male C57BL6J mice; conditions: dexamethasone 20 mg/kg i.p., Trulicity 1 mg/kg, PB1023 3 mg/kg s.c.; for total muscle mass: after three weeks, vs Dex-vehicle group, FIG. 12A
# Experimental: as §2, §3, §4
# [7] = test system: muscle atrophy-induced mice (dexamethasone); assay: Body weight of dexamethasone-induced muscle atrophy mice treated with exendin-4 (Example 1-1); type: in vivo, C57BL/6J male mice; conditions: exendin-4 100 ng/mouse i.p. 12 days following dexamethasone 200 mg/kg i.p. 8 days; vs dexamethasone alone; from day 11; FIG. 1
# Experimental: It is known that muscle atrophy is caused by chronic diseases (chronic renal failure, chronic heart failure, chronic obstructive disease, etc.), and caused by administration of a high dose of a drug such as dexamethasone. Thus, animal models (C57BL/6J male mice) were treated with dexamethasone to prepare sarcopenia models. When sarcopenia occurred, effects of exendin-4 were investigated.
# (§5) In detail, control mice which were not administered with dexamethasone or exendin-4, mice in which muscle atrophy was induced by intraperitoneal injection of dexamethasone (200 mg/kg) for 8 days, comparative mice which were intraperitoneally injected with exendin-4 (100 ng/mouse) for 12 days, and mice in which muscle atrophy was treated by intraperitoneal injection of exendin-4 (100 ng/mouse) for 12 days following intraperitoneal injection of dexamethasone (200 mg/kg) for 8 days were prepared. While these mice were raised for 20 days, changes in their body weights were measured (FIG. 1).
# [8] = test system: muscle atrophy-induced mice (dexamethasone); assay: Grip strength of muscle atrophy-induced mice treated with exendin-4 (Example 1-3); type: in vivo, C57BL/6J male mice; conditions: exendin-4 100 ng/mouse i.p. 12 days following dexamethasone 200 mg/kg i.p. 8 days; FIG. 3
# Experimental: as §5
# The control mice (control), dexamethasone-induced muscle atrophy mice, exendin-4-treated comparative mice, and muscle atrophy-treated mice treated with exendin-4 following treatment of dexamethasone, which were prepared in Example 1-1, were subjected to measurement of grip strength to investigate whether muscle functions were recovered (FIG. 3). In this regard, a force measured by a grip strength machine when all of the paws of a mouse were pulled with the same force was considered as the grip strength.
# [9] = test system: myostatin, atrogin-1, MuRF1, MyoD and myogenin genes; assay: Expression of muscle protein-destroying and -producing genes in muscle tissue, PCR (Example 1-4); type: in vivo, C57BL/6J male mice; conditions: exendin-4 following dexamethasone, FIG. 4
# Experimental: as §5
# It is known that when muscle atrophy occurs, expression of muscle protein-destroying genes (myostatin, atrogin-1, and MuRF1) is increased and expression of muscle protein-producing genes (MyoD and myogenin) is decreased; thus, this was to be examined That is, muscle tissues were removed from the control mice (control), dexamethasone-induced muscle atrophy mice, exendin-4-treated comparative mice, and muscle atrophy-treated mice treated with exendin-4 following treatment of dexamethasone, which were prepared in Example 1-1, and total RNAs were obtained from the muscle tissues. cDNAs were synthesized therefrom, each gene was amplified from the synthesized cDNA by PCR, and changes in the expression levels thereof were compared (FIG. 4).
# [10] = test system: myostatin, atrogin-1, and MuRF1 in C2C12 myocytes; assay: Expression of muscle atrophy-related genes in dexamethasone-treated C2C12 myocytes (Example 1-5); type: cell-based; conditions: 20 nM exendin-4 6 hours following 1 μM dexamethasone 12 hours, FIG. 5
# Experimental: A myoblast cell line C2C12 was differentiated into myocytes by culturing in a medium containing 2% (v/v) horse serum for 5 days. Control myocytes (control) prepared from the differentiated myocytes without any treatment, myocytes in which muscle atrophy symptoms were induced by treatment of 1 μM dexamethasone for 12 hours, comparative myocytes treated with 20 nM exendin-4 for 6 hours, and experimental myocytes in which muscle atrophy symptoms were treated with 20 nM exendin-4 for 6 hours following treatment of 1 μM dexamethasone for 12 hours were each prepared. Expression levels of muscle atrophy-related genes (myostatin, atrogin-1, and MuRF1) were compared in each of the myocytes (FIG. 5).
# [11] = test system: muscle atrophy-induced mice (dexamethasone); assay: Skeletal muscle weights of muscle atrophy-induced mice treated with exendin-4 (Example 1-2); type: in vivo, C57BL/6J male mice; conditions: exendin-4 100 ng/mouse i.p. 12 days following dexamethasone 200 mg/kg i.p. 8 days; FIG. 2
# Experimental: as §5
# The control mice (control), dexamethasone-induced muscle atrophy mice, exendin-4-treated comparative mice, and muscle atrophy-treated mice treated with exendin-4 following treatment of dexamethasone, which were prepared in Example 1-1, were sacrificed, and total weights of the skeletal muscles of the respective mice were measured. Quadratus muscles, gastrocnemus muscles, tibialis anterior muscles, soleus muscles, and extensor digitorum longus muscles constituting the skeletal muscles were each separated, and their weights were compared (FIG. 2).
compound,measurement,setting,value
N[C@@H](CC(=O)N1CCn2c(nnc2C(F)(F)F)C1)Cc1cc(F)c(F)cc1F [sitagliptin],MyoD expression,[1],increased again
same,myostatin expression,[1],decreased again
same,body weight,[2],increased
same,grip strength,[3],increased again
same,muscle mass,[4],increased
GLP-1(32-36)amide (LVKGR-NH2),MyoD expression,[1],increased again
same,myostatin expression,[1],decreased again
same,body weight,[2],increased
same,grip strength,[3],increased again
same,muscle mass,[4],increased
dulaglutide [Trulicity],grip strength,[5],improved to a significant level
same,grip strength,[5]; listed as dulaglutide,enhanced
same,muscle mass of EDL (Extensor digitorum longus) and QD (Quadratus),[6]; B to F of FIG. 12,statistical significance was confirmed by an increase in muscle mass
same,"muscle mass of TA (Tibialis anterior), Sol (Soleus), and GA (Gastrocnemius)",[6]; B to F of FIG. 12,tendency of increasing muscle mass
same,total muscle mass,[6],significantly increased compared to the Dex-vehicle group
same,total muscle mass,[6]; listed as dulaglutide,muscle mass was increased
exendin-4,body weight,[7],increase in the body weight was observed; also recorded: reduced body weight was restored
same,grip strength,[8],remarkably higher level of grip strength than the muscle atrophy-induced mice; also recorded: reduced grip strength was restored
same,"relative expression levels of muscle protein-destroying genes (myostatin, atrogin-1, and MuRF1)",[9],lowest relative expression levels; also recorded: decreased
same,relative expression levels of muscle protein-producing genes (MyoD and myogenin),[9],highest relative expression levels; also recorded: increased
same,"expression levels of muscle atrophy-related genes (myostatin, atrogin-1, and MuRF1)",[10],remarkably decreased expression levels
same,skeletal muscle mass (all kinds of skeletal muscles),[11],increased muscle mass similar to that of the control or comparative group; also recorded: reduced skeletal muscle mass was restored
